For test [1], the system named is Staphylococcus aureus. Kind of test: Antimicrobial activity against Staphylococcus aureus Sau 16162 assessed as inhibition of bacterial growth incubated for 16 to 18 hrs by broth micro dilution technique. The settings on record: time 16-18 hrs. In kind it is functional.
Test [2] relates to Staphylococcus aureus. In words: Antimicrobial activity against Staphylococcus aureus Sau 6917 assessed as inhibition of bacterial growth incubated for 16 to 18 hrs by broth micro dilution technique. Type of test: functional. The settings on record: time 16-18 hrs.
Test [3] relates to Staphylococcus aureus. In words: Antimicrobial activity against Staphylococcus aureus Sau 1862 assessed as inhibition of bacterial growth incubated for 16 to 18 hrs by broth micro dilution technique. Type of test: functional. The settings on record: time 16-18 hrs.
Test [4] deals with Staphylococcus aureus. In words: Antimicrobial activity against Staphylococcus aureus Sau 991 assessed as inhibition of bacterial growth incubated for 16 to 18 hrs by broth micro dilution technique. In kind it is functional. The following applies: time 16-18 hrs.
For test [5], the system named is Staphylococcus aureus. Kind of test: Antimicrobial activity against Staphylococcus aureus Sau 718306 assessed as inhibition of bacterial growth incubated for 16 to 18 hrs by broth micro dilution technique. Type of test: functional. The settings on record: time 16-18 hrs.
The test system of test [6] is Staphylococcus aureus. In words: Antimicrobial activity against Staphylococcus aureus Sau 745524 assessed as inhibition of bacterial growth incubated for 16 to 18 hrs by broth micro dilution technique. Type of test: functional. The settings on record: time 16-18 hrs.
Test [7] deals with Staphylococcus aureus. In words: Antimicrobial activity against Staphylococcus aureus CCAM 3090 assessed as inhibition of bacterial growth incubated for 16 to 18 hrs by broth micro dilution technique. The settings on record: time 16-18 hrs. Type of test: functional.
In test [8] the test system is Staphylococcus aureus. Kind of test: Antimicrobial activity against Staphylococcus aureus ATCC 29213 assessed as inhibition of bacterial growth incubated for 16 to 18 hrs by broth micro dilution technique. In kind it is functional. The settings on record: time 16-18 hrs.
The test system of another test is Micrococcus luteus. In words: Antimicrobial activity against Micrococcus luteus ML01 assessed as inhibition of bacterial growth incubated for 16 to 18 hrs by broth micro dilution technique. In kind it is functional. The following applies: time 16-18 hrs.
For the next test, the system named is Enterococcus faecium. In words: Antimicrobial activity against Enterococcus faecium ATCC 35682 assessed as inhibition of bacterial growth incubated for 16 to 18 hrs by broth micro dilution technique. In kind it is functional. The settings on record: time 16-18 hrs.
In a further test the test system is Enterococcus faecalis. In words: Antimicrobial activity against Enterococcus faecalis ATCC 29212 assessed as inhibition of bacterial growth incubated for 16 to 18 hrs by broth micro dilution technique. The settings on record: time 16-18 hrs. In kind it is functional.
In another test the test system is Bacillus thuringiensis. In words: Antimicrobial activity against Bacillus thuringiensis BT01 assessed as inhibition of bacterial growth incubated for 16 to 18 hrs by broth micro dilution technique. In kind it is functional. The settings on record: time 16-18 hrs.
The subject of the next test is Candida albicans. In words: Antimicrobial activity against Candida albicans assessed as inhibition of bacterial growth incubated for 16 to 18 hrs by broth micro dilution technique. In kind it is functional. The following applies: time 16-18 hrs.
For the next test, the system named is HepG2. Kind of test: Cytotoxicity against human HepG2 cells assessed as growth inhibition incubated for 68 hrs by MTT assay. In kind it is functional, cell-based. The settings on record: HepG2, 68 h. For orientation: Tetrazolium assays rely on reduction of a dye to a coloured formazan, in cell work by metabolically active cells.
The subject of another test is HeLa. In words: Cytotoxicity against human HeLa cells assessed as growth inhibition incubated for 68 hrs by MTT assay. In kind it is functional, cell-based.
A further test concerns HL-60. Kind of test: Cytotoxicity against human HL-60 cells assessed as growth inhibition incubated for 68 hrs by MTT assay. Type of test: functional, cell-based. The following applies: HL-60, 68 h.
The subject of a further test is RKO. In words: Cytotoxicity against human RKO cells assessed as growth inhibition incubated for 68 hrs by MTT assay. Type of test: functional, cell-based.
The subject of another test is A549. Kind of test: Cytotoxicity against human A549 cells assessed as growth inhibition incubated for 68 hrs by MTT assay. In kind it is functional, cell-based. The following applies: A549, 68 h.
A further test deals with MCF7. In words: Cytotoxicity against human MCF7 cells assessed as growth inhibition incubated for 68 hrs by MTT assay. Type of test: functional, cell-based. The settings on record: MCF7, 68 h.
A further test relates to L02. Kind of test: Cytotoxicity against human L02 cells assessed as growth inhibition incubated for 68 hrs by MTT assay. Type of test: cell-based. The following applies: L02, 68 h.
A further test has as its system BEAS-2B. Kind of test: Cytotoxicity against human BEAS-2B cells assessed as growth inhibition incubated for 68 hrs by MTT assay. In kind it is cell-based.

In brackets after ≈: the same amount, converted by molar mass. Numbered stars: 1 amine (or outer) side, 2 acyl side, 3 side chain; on linkers, the order of the positions; unused ones are H or OH. Bridge positions count the residues as written; N and C are the ends. Square brackets hold non-standard residues; d marks the D form. Peptide text beside a SMILES is read from it. I, II: the chains in the order shown. Actinocin(1to9) = Cc1c2oc3c(C)ccc(C(=O)[*:2])c3nc-2c(C(=O)[*:1])c(N)c1=O; NMeV = CN[C@H](C(=O)O)C(C)C; Sar = CNCC(=O)O

For orientation: MIC means the least concentration at which growth counts as inhibited. As a reminder, the IC50 is the concentration needed to halve the response being measured.

As to `COc1c2oc3c(OC)ccc(C(=O)N[C@@H]4C(=O)N[C@H](C(C)C)C(=O)N5CCC[C@H]5C(=O)N(C)CC(=O)N(C)[C@@H](C(C)C)C(=O)O[C@@H]4C)c3nc-2c(C(=O)N[C@@H]2C(=O)N[C@H](C(C)C)C(=O)N3CCC[C@H]3C(=O)N(C)CC(=O)N(C)[C@@H](C(C)C)C(=O)O[C@@H]2C)c(N)c1=O`, the MIC was 8 µg/mL (≈ 6.21 µM) in the test on Staphylococcus aureus [1]; 2 µg/mL (≈ 1.55 µM) in the test on Staphylococcus aureus [2]; 2 µg/mL (≈ 1.55 µM) in the test on Staphylococcus aureus [3]; 2 µg/mL (≈ 1.55 µM) in the test with Staphylococcus aureus [4]; 2 µg/mL (≈ 1.55 µM) with Staphylococcus aureus [5]; 2 µg/mL (≈ 1.55 µM) in the test on Staphylococcus aureus [6]. In addition, the minimal inhibitory concentration (MIC) was 2 µg/mL (≈ 1.55 µM) with Staphylococcus aureus [7]; 2 µg/mL (≈ 1.55 µM) with Staphylococcus aureus [8]; 0.5 µg/mL (≈ 0.388 µM) with Micrococcus luteus; 8 µg/mL (≈ 6.21 µM) in the test with Enterococcus faecium; 8 µg/mL (≈ 6.21 µM) in the test with Enterococcus faecalis; 4 µg/mL (≈ 3.11 µM) in the test on Bacillus thuringiensis. For the same molecule, in the test with Candida albicans, the MIC is 16 µg/mL (≈ 12.4 µM). Further, the IC50 in the test on HepG2 came to 4000 nM; with HeLa it was 4300 nM; in the test on HL-60 it was 200 nM; in the test with RKO, 1700 nM; in the test on A549 it was 18500 nM; with MCF7 it was 4100 nM. Moreover, the IC50 was found to be 3900 nM in the test with L02 and 2700 nM in the test on BEAS-2B.
Take `Cc1c2oc3c(C)ccc(C(=O)N[C@@H]4C(=O)N[C@H](C(C)C)C(=O)N5CCC[C@H]5C(=O)N(C)CC(=O)N(C)[C@@H](C(C)C)C(=O)O[C@@H]4C)c3nc-2c(C(=O)N[C@@H]2C(=O)N[C@H](C(C)C)C(=O)N3CCC[C@H]3C(=O)N(C)CC(=O)N(C)[C@@H](C(C)C)C(=O)O[C@@H]2C)c(N)c1=O` [DACTINOMYCIN] (I: T[dV]P[Sar][NMeV] / II: T[dV]P[Sar][NMeV]; ester I:1-I:C, II:1-II:C; linker I:N-II:N via Actinocin(1to9)): the minimum inhibitory concentration (MIC) in the test with Staphylococcus aureus [1] was determined as 1 µg/mL (≈ 0.797 µM); with Staphylococcus aureus [2], 0.06 µg/mL (≈ 0.0478 µM); in the test with Staphylococcus aureus [3] it was 0.06 µg/mL (≈ 0.0478 µM); in the test with Staphylococcus aureus [4], 0.06 µg/mL (≈ 0.0478 µM); in the test with Staphylococcus aureus [5], 0.06 µg/mL (≈ 0.0478 µM); with Staphylococcus aureus [6], 0.06 µg/mL (≈ 0.0478 µM). In addition, the MIC is 0.06 µg/mL (≈ 0.0478 µM) with Staphylococcus aureus [7]; 0.06 µg/mL (≈ 0.0478 µM) in the test with Staphylococcus aureus [8]; less than 0.06 µg/mL with Micrococcus luteus; 0.13 µg/mL (≈ 0.104 µM) in the test with Enterococcus faecium; less than 0.06 µg/mL in the test on Enterococcus faecalis; 0.06 µg/mL (≈ 0.0478 µM) with Bacillus thuringiensis. In the test on Candida albicans, the MIC is less than 0.06 µg/mL. The IC50 in the test on HepG2 was found to be 10 nM; in the test with HeLa it was 120 nM; in the test with HL-60 it was 20 nM; in the test on RKO, 30 nM; in the test on A549, 3800 nM; with MCF7, 200 nM. The figures for the half-inhibitory concentration (IC50) in the test on L02 and in the test on BEAS-2B were 500 nM and 700 nM, respectively.

Values taken from ChEMBL document CHEMBL4828714, “Mutasynthesis of Antibacterial Halogenated Actinomycin Analogues” (J Nat Prod, 2021).
